In ChEMBL document CHEMBL3734667 (Bioorg Med Chem, 2015):

What was measured:
[1] = Cytotoxicity against human MT4 cells assessed as cell viability after 96 hrs by MTT assay; type: cell-based
[2] = Cytotoxicity against MDBK cells assessed as cell viability after 48 to 96 hrs by MTT assay; type: cell-based, Bos taurus; conditions: cattle
[3] = Cytotoxicity against BHK cells assessed as cell viability after 48 to 96 hrs by MTT assay; type: cell-based, Mesocricetus auratus; conditions: hamster
[4] = Cytotoxicity against african green monkey Vero 76 cells assessed as cell viability after 48 to 96 hrs by crystal violet staining method; type: cell-based; conditions: chlorocebus sabaeus
[5] = system: Bovine viral diarrhea virus 1; test: Antiviral activity against BVDV infected in MDBK cells assessed as inhibition of virus-induced cytopathogenicity after 3 to 4 days by MTT assay; type: functional, organism-based; conditions: Bovine viral diarrhea virus isolates and strains
Yellow fever virus = test: Antiviral activity against YFV infected in BHK-21 cells assessed as inhibition of virus-induced cytopathogenicity after 3 to 4 days by MTT assay; type: functional, organism-based
[6] = system: Mammalian orthoreovirus 1; test: Antiviral activity against Reo-1 virus infected in BHK-21 cells assessed as inhibition of virus-induced cytopathogenicity after 3 to 4 days by MTT assay; type: functional, cell-based; conditions: Mammalian orthoreovirus 1, BHK-21
Coxsackievirus B5 [7] = test: Antiviral activity against human CVB5 infected in african green monkey Vero76 cells assessed as inhibition of virus-induced cytopathogenicity after 3 days by plaque reduction assay; type: functional, organism-based; conditions: Enterovirus B, Vero 76, 72 h
Human orthopneumovirus = test: Antiviral activity against human RSV infected in african green monkey Vero76 cells assessed as inhibition of virus-induced cytopathogenicity after 5 days by plaque reduction assay; type: functional, organism-based; conditions: human respiratory syncytial virus, Vero 76, 120 h
Poliovirus 1 = test: Antiviral activity against Human poliovirus 1 Sabin infected in african green monkey Vero76 cells assessed as inhibition of virus-induced cytopathogenicity by plaque reduction assay; type: functional, organism-based; conditions: Enterovirus C, Vero 76
[8] = Selectivity index, ratio of CC50 for african green monkey Vero76 cells to EC50 for human CVB5; design: species or system Coxsackievirus B5, Vero 76
[9] = system: Human immunodeficiency virus 1; test: Antiviral activity against HIV-1 infected in MT4 cells assessed as inhibition of virus-induced cytopathogenicity after 4 days by MTT assay; type: functional, organism-based; conditions: Human immunodeficiency virus 1, MT4, 96 h
Coxsackievirus B5 [10] = test: Ratio of NM108 EC50 to compound EC50 for human CVB5; type: functional
Coxsackievirus B5 [11] = test: Ratio of NM176 EC50 to compound EC50 for human CVB5; type: functional
Human alphaherpesvirus 1 = test: Antiviral activity against HSV1; type: functional, organism-based
[12] = system: Vesicular stomatitis virus; test: Antiviral activity against VSV; type: functional, organism-based
Vaccinia virus = test: Antiviral activity against Vaccinia virus; type: functional, organism-based; conditions: Orthopoxvirus vaccinia

Cc1ccc2nn(-c3ccc(OCCCC(C)(C)C(=O)O)cc3)nc2c1
CC50 at 96 h [1]: 53 µM | CC50 [2]: 24 µM | CC50 [3]: 17 µM | CC50 [4]: 15 µM | EC50 [5]: > 100 µM | EC50 (Yellow fever virus): > 100 µM | EC50 [6]: > 100 µM | EC50 (Coxsackievirus B5 [7]): 0.15 µM | EC50 (Human orthopneumovirus): > 100 µM | EC50 (Poliovirus 1): > 100 µM | Ratio CC50/EC50 [8]: 100 | EC50 [9]: > 100 µM | Ratio EC50 (Coxsackievirus B5 [10]): 133 | Ratio EC50 (Coxsackievirus B5 [11]): 200 | EC50 (Human alphaherpesvirus 1): > 100 µM | EC50 [12]: > 100 µM | EC50 (Vaccinia virus): > 100 µM
